According to patent publication US20060222707A1 (priority 2005, published 2006):

Test: Small volume in vitro release test in 50 ml 0.1N HCl
Assay type: physicochemical
Conditions: 37° C., 150 rpm
Protocol: The formulations were tested for their small volume in vitro release characteristics in 50 ml 0.1N HCl at 37° C. and 150 rpm using the following procedure: III. Instrumentation (or Equivalent) a. Automated Dissolution System comprising: Hanson SR8 Plus Test Station Hanson Auto Plus Maximiser System Controller Hanson Auto Plus MultiFill Fraction Collector b. HPLC System comprising: pump—Merck Hitachi L-7100 autoinjector—Merck Hitachi L-7200 column oven—Merck Hitachi L-7300 detector—Merck Hitachi L-7400 interface and integration software—Merck Hitachi D-7000
0.1N HCl Preparation Dilute 8.5 ml HCl 37% to 1 liter with purified water. Procedure Place one weighed capsule in each vessel containing 0.1N HCl and immediately operate the apparatus for 30 min. Unless otherwise specified, 3 ml samples are withdrawn from each vessel and immediately filtered through PTFE membranes at 15 and 30 min.
The small volume was chosen as a model of the conditions in a fasted stomach.

CC(C)OC(=O)C(C)(C)Oc1ccc(C(=O)c2ccc(Cl)cc2)cc1 [Micronized Fenofibrate]
dissolution under small volume conditions (in words): no dissolution at all
